Source: patent publication US9943076B2, “Boron added cell cryopreservation medium” (YEDITEPE ÜNIVERSITESI, priority 2013, dated 2018)

Experiments:
[1] = test system: human tooth germ stem cells
Procedure: The intermediate concentrations to be applied on the cells were prepared in the cell culture medium and were applied on the human tooth germ stem cells.

[2] = test system: human tooth germ stem cells; settings: FIG. 2
Procedure: During the freezing process, different from the standard protocol, 20 μg/ml NaB was added to the cell cryopreservation medium. The control group was incubated by a standard cryopreservation medium. During freezing of the cells, different amounts of Me2SO (10%, 7%, 5% and 3% Me2SO) were added to the medium which contained 20% FBS (Fetal Bovine Serum) and 1% PSA (penicillin streptomycin amphotericin) in addition to 20 μg/ml NaB. Except for the group which was frozen for an extended period (6 months), the other cells were subjected to 4 repeating freeze-thaw processes. During each freezing process, one million cells were placed into one freezing tube and were frozen to −80° C. by using a freezing tank. The freezing tubes were transferred to −196° C. liquid nitrogen vapor one day later. After each freezing process, the cells were rapidly molten in a 37° C. water bath and viability analyses were performed with trypan blue.

[3] = test system: human tooth germ stem cells; settings: 20 μg/ml NaB + 5% Me2SO, thawed after long term freezing

sodium pentaborate pentahydrate [NaB]
concentration at which toxic effect was observed [1]: ≥ 200 µg/mL | toxic effect in cell viability analysis of frozen cells ([2]; 20 μg/ml NaB in the presence of 5% Me2SO, repeatedly frozen cells and cells stored long term (6 months)): decreased toxic effect | cell viability over repeated freeze-thaw processes ([2]; 20 μg/ml NaB, 5% Me2SO in cryopreservation medium): started to increase during and after the second freeze-thaw process | differentiation of the cells into chondrogenic lineage [3]: increase | differentiation of the cells into odontogenic lineage [3]: increase | stem cell differentiation into adipose tissue [3]: slight decrease | differentiation potentials of the cells (staining and immunocytochemistry analyses) ([3]; FIG. 3-4): no significant change
